Measurements as given in patent US10800755B2, “2,6-disubstituted pyridine derivative” (Sumitomo Dainippon Pharma Co., Ltd., priority 2017, dated 2020).
Read-outs that look alike come from different tables or passages of the source.

What was measured:
[1] = Test 3-1: metabolic stability test of human liver microsome (0.1 mg/mL); format: in vitro ADME; details: test compound 0.1 μmol/L, 37° C., 30 minutes
Method: Test 3-1: Metabolic Stability Test of Human Liver Microsome
The stability of the present compounds for human liver microsome metabolism was evaluated as mentioned below. The used human liver microsome was obtained from Xenontech. Human liver microsome, NADPH, and each test compound were mixed in 25 mmol/L phosphate buffer solution (pH 7.4) to adjust each concentration as shown below, and the mixture was incubated at 37° C. for 30 minutes. • human liver microsome: 0.1 mg/mL • NAPDH: 3.2 mmol/L • test compound: 0.1 μmol/L
The residual ratio of the test compound in each sample after the incubation for 30 minutes was measured with a LC-MS, and the metabolic stability of human liver microsome was calculated about each test compound with the following formula. Metabolic stability of human liver microsome (mL/min/mg protein)=−LN (residual ratio)/“reaction time”/“concentration of human liver microsome”

hERG channel [2] = target: T1, hERG channel (Homo sapiens (Human), UniProt Q12809); assay: Test 5-1: activity for inhibiting hERG channel (whole-cell patch clamp, hERG-CHO cell, Qpatch); format: cell-based; details: read-out: hERG inhibition IC50
T1 sequence (Q12809 whole entry): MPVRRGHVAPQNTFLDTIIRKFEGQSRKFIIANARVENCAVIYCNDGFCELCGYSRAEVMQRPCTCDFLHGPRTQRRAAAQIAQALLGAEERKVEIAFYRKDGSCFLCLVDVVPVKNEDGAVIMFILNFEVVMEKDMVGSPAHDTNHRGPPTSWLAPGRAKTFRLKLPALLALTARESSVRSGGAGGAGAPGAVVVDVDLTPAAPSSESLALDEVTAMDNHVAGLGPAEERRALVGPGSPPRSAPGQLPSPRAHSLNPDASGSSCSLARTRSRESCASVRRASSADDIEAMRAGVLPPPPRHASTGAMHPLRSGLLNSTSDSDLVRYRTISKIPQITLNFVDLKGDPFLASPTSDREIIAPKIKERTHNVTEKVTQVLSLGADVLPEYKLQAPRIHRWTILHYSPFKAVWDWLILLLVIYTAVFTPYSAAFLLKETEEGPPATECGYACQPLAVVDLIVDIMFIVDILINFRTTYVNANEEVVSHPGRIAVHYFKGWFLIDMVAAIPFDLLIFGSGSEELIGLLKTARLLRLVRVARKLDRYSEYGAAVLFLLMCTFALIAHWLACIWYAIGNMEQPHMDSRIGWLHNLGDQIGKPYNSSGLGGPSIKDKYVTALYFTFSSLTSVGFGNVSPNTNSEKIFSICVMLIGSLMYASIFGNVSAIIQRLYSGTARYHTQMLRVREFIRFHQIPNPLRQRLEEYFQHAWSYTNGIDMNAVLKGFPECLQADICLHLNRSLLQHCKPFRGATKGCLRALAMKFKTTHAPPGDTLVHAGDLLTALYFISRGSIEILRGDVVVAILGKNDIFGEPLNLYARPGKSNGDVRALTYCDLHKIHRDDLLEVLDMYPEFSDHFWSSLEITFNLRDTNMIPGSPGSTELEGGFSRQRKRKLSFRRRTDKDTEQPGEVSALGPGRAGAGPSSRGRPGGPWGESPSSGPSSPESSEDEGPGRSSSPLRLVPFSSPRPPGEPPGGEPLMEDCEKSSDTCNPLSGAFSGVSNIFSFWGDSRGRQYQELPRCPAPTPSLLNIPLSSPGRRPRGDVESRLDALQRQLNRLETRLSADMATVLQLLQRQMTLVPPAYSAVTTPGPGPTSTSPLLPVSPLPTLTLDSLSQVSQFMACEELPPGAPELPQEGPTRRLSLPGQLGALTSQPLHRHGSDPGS
Method: Test 5-1: Evaluation of Activity for Inhibiting hERG Channel
(§1) The activity of the present compound for inhibiting hERG channel was measured by whole-cell patch clamp method with auto patch clamp system, using CHO cell wherein hERG channel involved in human rapidly activating delayed rectifier potassium current (IKr) was forcibly expressed.
(§2) hERG-CHO cell purchased from ChanTest was incubated at 37° C. in a CO2 incubator, and the cell was exfoliated from the flask with trypsin to prepare a cell suspension, shortly before the hERG current measurement.
(§3) Extracellular fluid: 2 mmol/L CaCl2, 1 mmol/L MgCl2, 10 mmol/L HEPES, 4 mmol/L KCl, 145 mmol/L NaCl, 10 mmol/L glucose
Intracellular fluid: 5.4 mmol/L CaCl2, 1.8 mmol/L MgCl2, 10 mmol/L HEPES, 31 mmol/L KOH, 10 mmol/L EGTA, 120 mmol/L KCl, 4 mmol/L Na2-ATP
Test compound solution: The test compound was dissolved in DMSO by adjusting the concentration to 2 mmol/L or 20 mmol/L to prepare each test compound solution. […] (Measurement of Current Value and Data Analysis)
The cell suspension, the extracellular fluid, the intracellular fluid, and the measurement plate were set in an auto patch clamp system, and the hERG current was measured by whole-cell patch clamp method. […] Each pulse interval was 15 seconds. The data analysis was carried out with Qpatch Assay Software (Biolin Scientific). The test was carried out applying increscently 4 concentrations of each test compound, and the average of the peak tail currents that were obtained by the last 3 stimulations in each applied concentration was determined to be the evaluated data. By using the current inhibition rate for the pre-applied current at each concentration of each test compound, IC50 value was calculated by Hill equation with the software.

human 5-HT1A receptor [3] = target: T2, human 5-HT1A receptor (Homo sapiens (Human), UniProt P08908); assay: Test 2: binding activity to human 5-HT1A receptor ([3H] 8-OH-DPAT, CHO cell membrane); details: [3H] 8-OH-DPAT; read-out: 5-HT1A binding affinity (Ki value)
T2 sequence (P08908 whole entry): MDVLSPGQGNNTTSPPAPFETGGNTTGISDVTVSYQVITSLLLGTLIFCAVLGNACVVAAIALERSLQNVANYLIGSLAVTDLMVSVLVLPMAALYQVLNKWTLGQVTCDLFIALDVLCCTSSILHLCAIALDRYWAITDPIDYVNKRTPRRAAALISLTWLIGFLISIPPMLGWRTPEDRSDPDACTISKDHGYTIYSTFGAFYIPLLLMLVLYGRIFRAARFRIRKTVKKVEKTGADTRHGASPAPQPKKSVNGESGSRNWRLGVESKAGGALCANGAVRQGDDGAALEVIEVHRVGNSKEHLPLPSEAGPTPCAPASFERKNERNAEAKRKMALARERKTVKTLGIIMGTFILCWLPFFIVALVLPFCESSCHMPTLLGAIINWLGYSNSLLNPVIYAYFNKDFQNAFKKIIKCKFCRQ
Method: (§4) Test 2: Evaluation of Binding Activity to Human 5-HT1A Receptor, Human D4 Receptor, and Human D2 Receptor
(§5) CHO cell membrane fraction in which human 5-HT1A receptor, human D4 receptor, and human D2 receptor were expressed was purchased from PerkinElmer Co., Ltd. In the evaluation test of binding, the test compound dissolved in DMSO, each receptor membrane preparation diluted with buffer solution, and [3H] […] The nonspecific binding to each receptor was evaluated by a competition binding experiment in the presence of 10 μmol/L 8-OH-DPAT, 10 μmol/L dopamine, or 10 μmol/L spiperone, respectively.

human 5-HT1A receptor [4] = target: T2, human 5-HT1A receptor; assay: Test 1: agonistic activity for human 5-HT1A receptor (aequorin/Gα16 luminescence in CHO-K1 cell); format: cell-based; details: for 5-HT1A agonistic activity Emax / Emax: 100% = 10 μmol/L endogenous ligand; for EC50: CHO-K1 cell, aequorin luminescence; for Emax: CHO-K1
Method: (§6) Test 1: Evaluation of Agonistic Activity for Human 5-HT1A Receptor and Human D4 Receptor
(§7) Aequorin, Gα16 proteins, and each receptor were transiently expressed in CHO-K1 cell (Chinese hamster ovary), and seeded to 384-well plate. The plate was incubated in a CO2 incubator at 37° C. for 24 hours. Each example compound dissolved in DMSO was added thereto, and the change of luminescence amount was measured with Hamamatsu FDSS/μCELL System (Hamamatsu Photonics).

human D2 receptor = human D2 receptor (Homo sapiens (Human), UniProt P14416); assay: Test 2: binding activity to human D2 receptor ([3H] spiperone, CHO cell membrane); details: [3H] spiperone; read-out: D2 binding affinity (Ki value)
Chain of human D2 receptor (P14416 whole entry): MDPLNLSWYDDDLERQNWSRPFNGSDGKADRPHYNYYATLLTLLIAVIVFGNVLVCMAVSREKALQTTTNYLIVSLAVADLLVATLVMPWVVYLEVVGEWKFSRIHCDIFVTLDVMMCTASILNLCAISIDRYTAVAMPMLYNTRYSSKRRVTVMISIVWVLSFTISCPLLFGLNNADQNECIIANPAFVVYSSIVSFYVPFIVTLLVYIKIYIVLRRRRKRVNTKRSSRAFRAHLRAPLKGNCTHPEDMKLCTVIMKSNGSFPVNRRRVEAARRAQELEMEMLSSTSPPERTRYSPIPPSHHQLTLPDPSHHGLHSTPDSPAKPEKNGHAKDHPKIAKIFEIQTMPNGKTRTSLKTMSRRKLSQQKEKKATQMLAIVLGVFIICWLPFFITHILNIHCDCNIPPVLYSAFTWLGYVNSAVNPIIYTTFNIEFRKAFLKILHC
Method: as §4, §5

human D4 receptor [5] = target: T3, human D4 receptor (Homo sapiens (Human), UniProt P21917); assay: Test 1: agonistic activity for human D4 receptor (aequorin/Gα16 luminescence in CHO-K1 cell); format: cell-based; details: for D4 agonistic activity Emax / Emax: 100% = 10 μmol/L endogenous ligand; for EC50: CHO-K1 cell, aequorin luminescence; for Emax: CHO-K1
T3 sequence (P21917 whole entry): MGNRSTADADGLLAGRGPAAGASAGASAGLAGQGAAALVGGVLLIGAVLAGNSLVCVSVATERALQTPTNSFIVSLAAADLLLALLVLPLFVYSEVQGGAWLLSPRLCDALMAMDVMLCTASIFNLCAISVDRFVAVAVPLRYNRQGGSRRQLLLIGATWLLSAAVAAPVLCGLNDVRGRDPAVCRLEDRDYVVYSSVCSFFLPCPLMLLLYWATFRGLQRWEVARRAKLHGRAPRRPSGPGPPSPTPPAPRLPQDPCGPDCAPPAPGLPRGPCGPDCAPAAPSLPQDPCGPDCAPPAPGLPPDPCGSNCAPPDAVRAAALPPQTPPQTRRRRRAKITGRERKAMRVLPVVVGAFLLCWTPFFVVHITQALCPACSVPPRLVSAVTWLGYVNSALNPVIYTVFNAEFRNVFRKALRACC
Method: as §6, §7

human D4 receptor [6] = target: T3, human D4 receptor; assay: Test 2: binding activity to human D4 receptor ([3H] dopamine, CHO cell membrane)
Method: as §4, §5

hERG channel [7] = target: T1, hERG channel; assay: Test 5-2: activity for inhibiting hERG channel (whole-cell patch clamp, hERG-CHO cell, Qube); format: cell-based; details: read-out: hERG inhibition IC50
Method: Test 5-2: Evaluation of Activity for Inhibiting hERG Channel
as §1, §2, §3
Intracellular fluid: 10 mmol/L HEPES, 10 mmol/L EGTA, 20 mmol/L KCl, 130 mmol/L KF
Test compound solution: The compound was dissolved in DMSO by adjusting the concentration to 2 mmol/L or 20 mmol/L to prepare each test compound solution. […] (Measurement of Current Value and Data Analysis)
The cell suspension, the extracellular fluid, the intracellular fluid, and the measurement plate were set in an auto patch clamp system, and the hERG current was measured by whole-cell patch clamp method. The voltage-protocol was as follows: the holding potential was adjusted to −80 mV, the depolarizing pulse was added at −50 mV to +20 mV for 5 seconds, the repolarizing pulse was added at −50 mV for 5 seconds, then the potential was returned to the holding potential. Each pulse interval was 15 seconds. The data analysis was carried out with Qube Assay Software (Sophion Scientific). The test was carried out applying increscently 4 concentrations of each test compound, and the average of the peak tail currents that were obtained by the last 3 stimulations in each applied concentration was made to be the evaluated data. By using the current inhibition rate for the pre-applied current at each concentration of each test compound, IC50 value was calculated by Hill equation with the software.

[8] = [3H] dopamine, read-out: D4 binding affinity (Ki value)

| SMILES | Metabolic stability of human liver microsome [1] | Ki (human 5-HT1A receptor [3]) | 5-HT1A agonistic activity Emax (human 5-HT1A receptor [4]) | EC50 (human 5-HT1A receptor [4]) | Ki (human D2 receptor) | D4 agonistic activity Emax (human D4 receptor [5]) | EC50 (human D4 receptor [5]) | Ki (human D4 receptor [6]; [8]) | Emax (human 5-HT1A receptor [4]) | Emax (human D4 receptor [5]) | IC50 (hERG channel [2]) | IC50 (hERG channel [7]) | Ki (human D4 receptor [6]) |
| --- | --- | --- | --- | --- | --- | --- | --- | --- | --- | --- | --- | --- | --- |
| O=C(NCCN1CCC(c2cccc(C(F)(F)F)n2)CC1)C1CCCOC1 (stereo not drawn) [Example 2] | 0.069 mL/min/mg protein | 11 nM | 86% | 323 nM | > 10000 nM | 61% | 58.9 nM | 109 nM | – | – | > 10000 nM | – | – |
| Cc1cccc(C2CCN(CCNC(=O)C3CC4CCC3O4)CC2)n1 (stereo not drawn) [Example 3] | <0.01 mL/min/mg protein | 7.1 nM | – | 38 nM | > 10000 nM | 76% | 33.5 nM | 198 nM | – | – | 32100 nM | – | – |
| Cc1cccc(C2CCN(CCNC(=O)C3CCC(F)(F)CC3)CC2)n1 [Example 4] | <0.01 mL/min/mg protein | 0.4 nM | 90% | < 10 nM | > 10000 nM | 71% | 25.1 nM | 26 nM | – | – | 4000 nM | – | – |
| Cc1cccc(C2=CCN(CCNC(=O)C3CCOCC3)CC2)n1 [Example 29, N-[2-(6-Methyl-3′,6′-dihydro[2,4′-bipyridin]-1′(2′H)-yl)ethyl]-tetrahydro-2H-pyran-4-carboxamide] | <0.05 mL/min/mg protein | 0.4 nM | – | < 10 nM | > 10000 nM | – | 24 nM | – | 50% | 74% | – | > 10000 nM | 22 nM |
| Cc1cccc(C2=CCN(CCNC(=O)C(C)(C)C)CC2)n1 [Example 30, 2,2-Dimethyl-N-[2-(6-methyl-3′,6′-dihydro[2,4′-bipyridin]-1′ (2′H)-yl)ethyl]propanamide] | 0.114 mL/min/mg protein | 1.4 nM | – | 27 nM | > 10000 nM | – | < 10 nM | – | 36% | 59% | – | > 10000 nM | 14 nM |
| CC(C)(C)C(=O)NCCN1CC=C(c2cccc(C(F)(F)F)n2)CC1 [Example 31, 2,2-Dimethyl-N-{2-[6-(trifluoromethyl)-3′,6′-dihydro[2,4′-bipyridin]-1′ (2′H)-yl]ethyl}propanamide] | <0.05 mL/min/mg protein | 0.3 nM | – | 35 nM | 1280 nM | – | < 10 nM | – | 40% | 52% | – | > 10000 nM | 2.9 nM |

The next lines start with results.

| Metabolic stability of human liver microsome [1] | Ki (human 5-HT1A receptor [3]) | 5-HT1A agonistic activity Emax (human 5-HT1A receptor [4]) | EC50 (human 5-HT1A receptor [4]) | Ki (human D2 receptor) | D4 agonistic activity Emax (human D4 receptor [5]) | EC50 (human D4 receptor [5]) | Ki (human D4 receptor [6]; [8]) | Emax (human 5-HT1A receptor [4]) | Emax (human D4 receptor [5]) | SMILES | IC50 (hERG channel [2]) | IC50 (hERG channel [7]) | Ki (human D4 receptor [6]) |
| --- | --- | --- | --- | --- | --- | --- | --- | --- | --- | --- | --- | --- | --- |
| 0.017 mL/min/mg protein | 13 nM | 106% | < 10 nM | > 10000 nM | 58% | < 10 nM | 43 nM | – | – | COCC1(C(=O)NCCN2CCC(c3cccc(C(F)(F)F)n3)CC2)CC1 [Example 7] | 5600 nM | – | – |
| 0.015 mL/min/mg protein | – | 90% | – | – | 85% | – | – | – | – | Cc1cccc(C2CCN(CCNC(=O)C(C)(C)C)CC2)n1 [Example 10] | > 10000 nM | – | – |
| <0.05 mL/min/mg protein | 20 nM | – | 67 nM | 3330 nM | – | 30 nM | 423 nM | 46% | 49% | O=C(NCCN1CCC(c2cccc(C(F)(F)F)n2)CC1)C1CCCO1 (stereo not drawn) [Example 25] | – | > 10000 nM | – |
| <0.05 mL/min/mg protein | 28 nM | – | 47 nM | 2470 nM | – | 37 nM | 104 nM | 69% | 44% | O=C(NCCN1CCC(c2cccc(OC(F)(F)F)n2)CC1)C1CCOCC1 [Example 28] | – | > 10000 nM | – |
| <0.05 mL/min/mg protein | 21 nM | – | 22 nM | > 10000 nM | – | 13 nM | 119 nM | 83% | 62% | COc1cccc(C2CCN(CCNC(=O)C3CCOCC3)CC2)n1 [Example 33] | – | > 10000 nM | – |
| <0.05 mL/min/mg protein | 10 nM | – | 22 nM | > 10000 nM | – | 15 nM | 56 nM | 42% | 55% | O=C(NCCN1CCC(c2cccc(C(F)F)n2)CC1)C1CCOCC1 [Example 34] | – | 5500 nM | – |
| <0.05 mL/min/mg protein | 37 nM | – | 86 nM | > 10000 nM | – | 42 nM | 10 nM | 50% | 35% | CN(C)c1cccc(C2CCN(CCNC(=O)C3CCOCC3)CC2)n1 [Example 38, N-(2-{4-[6-(Dimethylamino)pyridin-2-yl]piperidin-1-yl}ethyl)-tetrahydro-2H-pyran-4-carboxamide] | – | > 10000 nM | – |
